From BindingDB's records for patent US20240109900 (IRBM, 2024)

target: T1, Tyrosine-protein phosphatase non-receptor type 11 (Homo sapiens, UniProt Q06124); experiment: SHP2 Inhibition Enzymatic Assay
T1 sequence (Q06124 whole entry): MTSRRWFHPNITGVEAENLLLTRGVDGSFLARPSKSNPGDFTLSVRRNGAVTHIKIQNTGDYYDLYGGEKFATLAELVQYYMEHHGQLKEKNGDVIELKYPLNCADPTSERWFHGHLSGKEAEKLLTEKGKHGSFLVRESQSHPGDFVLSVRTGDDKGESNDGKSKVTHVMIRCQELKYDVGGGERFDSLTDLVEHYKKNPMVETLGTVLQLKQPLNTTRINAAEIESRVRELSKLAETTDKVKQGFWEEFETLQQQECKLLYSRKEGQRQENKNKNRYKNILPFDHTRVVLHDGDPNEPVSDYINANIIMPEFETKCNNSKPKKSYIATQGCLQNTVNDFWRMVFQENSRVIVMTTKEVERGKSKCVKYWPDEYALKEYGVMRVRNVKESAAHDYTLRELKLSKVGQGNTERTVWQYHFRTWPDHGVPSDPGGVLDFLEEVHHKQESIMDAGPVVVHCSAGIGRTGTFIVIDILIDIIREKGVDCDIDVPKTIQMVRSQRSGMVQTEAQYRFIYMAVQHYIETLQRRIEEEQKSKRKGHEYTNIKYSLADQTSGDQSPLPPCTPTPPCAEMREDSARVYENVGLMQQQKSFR
Description: Assay volume of 20 μL/well was assembled in 384 well black polystyrene low-binding microplates (Greiner), using the following buffer: 60 mM HEPES pH 7.2, 75 mM NaCl, 75 mM KCl, 1 mM EDTA pH 8, 0.05% tween-20, 5 mM DTT. The SHP-2 enzyme (synthetized by Origene, Met1-Leu525, cat #TP750155) was used at a final concentration of 0.5 nM. […] SHP2 was then added together with the IRS1 peptide. 30 min post incubation, the DiFMUP substrate was added to the reaction and incubated 30 min at room temperature. […] The fluorescence was detected by a microplate reader (Envision, PerkinElmer) according to the DiFMUP excitation and emission wavelength. The lower the fluorescence the higher the SHP2 inhibition. […] The percentage inhibition is fitted against the compound dilutions with a four-parameter logistic regression.

| SMILES | IC50 |
| --- | --- |
| Cc1c(-c2n[nH]c3nc(N4CC[C@@H]5[C@H](C4)[C@@]5(CN)c4cc(F)cc(F)c4)cnc23)ccc2nn(C)cc12 [US20240109900, Example 308] | < 500 nM |
| NC[C@]1(c2ccccc2F)[C@@H]2CCN(c3cnc4c(-c5ccc(-c6cc(F)c(O)c(F)c6)cc5Cl)n[nH]c4n3)C[C@@H]21 [US20240109900, Example 313] | < 500 nM |
| NC[C@]1(c2ccccc2F)[C@@H]2CCN(c3cnc4c(-c5ccc(F)c6c(=O)[nH]ccc56)n[nH]c4n3)C[C@@H]21 [US20240109900, Example 314] | < 500 nM |
| CN1CCOc2ccc(-c3n[nH]c4nc(N5CC[C@@H]6[C@H](C5)[C@@]6(CN)c5ccccc5F)cnc34)c(Cl)c21 [US20240109900, Example 321] | < 500 nM |
| CC(C)(C)C#Cc1n[nH]c2nc(N3CC[C@@H]4[C@H](C3)[C@@]4(CN)c3ccccc3F)cnc12 [US20240109900, Example 366] | < 500 nM |
| NC[C@]1(c2ccsn2)[C@@H]2CN(c3cnc4c(-c5ccc6nn(C(F)F)cc6c5Cl)n[nH]c4n3)C[C@@H]21 [US20240109900, Example 468] | < 500 nM |
| Cc1csc([C@@]2(CN)[C@@H]3CN(c4cnc5c(-c6ccnc(C)c6F)n[nH]c5n4)C[C@@H]32)n1 [US20240109900, Example 477] | < 500 nM |
| Cc1csc([C@@]2(CN)[C@@H]3CCN(c4cnc5c(-c6ccc(F)c7ncccc67)c[nH]c5n4)C[C@@H]32)n1 [US20240109900, Example 502] | < 500 nM |
| Cc1csc([C@@]2(CN)[C@@H]3CN(c4cnc5c(-c6ccc7c(c6)CC(=O)N7C)n[nH]c5n4)C[C@@H]32)n1 [US20240109900, Example 513] | < 500 nM |
| Cc1csc([C@@]2(CN)[C@@H]3CN(c4nc(C)n(-c5cccc(Cl)c5Cl)c(=O)c4Cl)C[C@@H]32)n1 [US20240109900, Example 526] | < 500 nM |
| NC[C@]1(c2cc(F)ccc2F)[C@@H]2CCN(c3cnc4c(-c5cccc6c5CCC(=O)N6)n[nH]c4n3)C[C@@H]21 [US20240109900, Example 531] | < 500 nM |

The next lines start with the values.

| IC50 | SMILES |
| --- | --- |
| < 500 nM | NCC1(c2ccccc2F)C2CCN(c3cc4nc(Sc5ccnc(N)c5Cl)cnc4[nH]3)CC21 (centres undefined) [US20240109900, Example 59] |
| < 500 nM | Cc1cc(C(N)=O)ncc1-c1n[nH]c2nc(N3CC[C@@H]4[C@H](C3)[C@@]4(CN)c3ccccc3F)cnc12 [US20240109900, Example 307] |
| < 500 nM | N#CNC(=O)c1ccc(-c2n[nH]c3nc(N4CC[C@@H]5[C@H](C4)[C@@]5(CN)c4ccccc4F)cnc23)c(Cl)c1 [US20240109900, Example 310] |
| < 500 nM | Cc1c(-c2n[nH]c3nc(N4CC[C@@H]5[C@H](C4)[C@@]5(CN)c4ccccc4F)cnc23)ccc2c1ncn2C [US20240109900, Example 318] |
| < 500 nM | NC[C@]1(c2ccccc2F)[C@@H]2CCN(c3cnc4c(-c5ccc6c(N)nccc6c5)n[nH]c4n3)C[C@@H]21 [US20240109900, Example 319] |
| < 500 nM | NC[C@]1(c2ccccc2F)[C@@H]2CCN(c3cnc4c(-c5ccc(CC(N)=O)cc5Cl)n[nH]c4n3)C[C@@H]21 [US20240109900, Example 328] |
| < 500 nM | NC[C@]1(c2ccccc2F)[C@@H]2CCN(c3nc4nc(Sc5ccnc(-n6cccn6)c5Cl)cnc4[nH]3)C[C@@H]21 [US20240109900, Example 342] |
| < 500 nM | COc1nccc2cc(-c3n[nH]c4nc(N5CC[C@@H]6[C@H](C5)[C@@]6(CN)c5ccccc5F)cnc34)ccc12 [US20240109900, Example 352] |
| < 500 nM | Cc1nc2ccc(-c3n[nH]c4nc(N5CC[C@@H]6[C@H](C5)[C@@]6(CN)c5ccccc5F)cnc34)c(Cl)c2n1C [US20240109900, Example 358] |
| < 500 nM | NC[C@]1(c2ccccc2F)[C@@H]2CCN(c3cnc4c(-c5ccc6nn(CCO)cc6c5Cl)n[nH]c4n3)C[C@@H]21 [US20240109900, Example 365] |
| < 500 nM | NC[C@]1(c2ccccc2F)[C@@H]2CCN(c3cnc4c(-c5ccc(-c6nsc(O)n6)cc5Cl)n[nH]c4n3)C[C@@H]21 [US20240109900, Example 379] |
| < 500 nM | Cc1csc([C@@]2(CN)[C@@H]3CN(c4cnc5c(-c6ccnc(-n7cccn7)c6Cl)n[nH]c5n4)C[C@@H]32)n1 [US20240109900, Example 516] |
| < 500 nM | Cc1csc([C@@]2(CN)[C@@H]3CN(c4cnc(Sc5ccnc(-n6cccn6)c5Cl)cn4)C[C@@H]32)n1 [US20240109900, Example 520] |
